Experiments:
MOLT-4 = assay: Antiproliferative activity against human MOLT4 cells assessed as growth inhibition at 10 uM after 48 hrs by sulforhodamine B assay relative to control; format: functional; conditions: MOLT-4, 48 h, read-out: GI
LOX IMVI = assay: Antiproliferative activity against human LOXIMVI cells assessed as growth inhibition at 10 uM after 48 hrs by sulforhodamine B assay relative to control; format: functional; conditions: read-out: GI
SK-MEL-5 = assay: Antiproliferative activity against human SK-MEL-5 cells assessed as growth inhibition at 10 uM after 48 hrs by sulforhodamine B assay relative to control; format: functional; conditions: SK-MEL-5, 48 h, read-out: GI
NCI-H322M = assay: Antiproliferative activity against human NCI-H322M cells assessed as growth inhibition at 10 uM after 48 hrs by sulforhodamine B assay relative to control; format: functional; conditions: read-out: GI
K562 = assay: Antiproliferative activity against human K562 cells assessed as growth inhibition at 10 uM after 48 hrs by sulforhodamine B assay relative to control; format: functional; conditions: K562, 48 h, read-out: GI
NCI-H460 = assay: Antiproliferative activity against human NCI-H460 cells assessed as growth inhibition at 10 uM after 48 hrs by sulforhodamine B assay relative to control; format: functional; conditions: NCI-H460, 48 h, read-out: GI
PC-3 = assay: Antiproliferative activity against human PC3 cells assessed as growth inhibition at 10 uM after 48 hrs by sulforhodamine B assay relative to control; format: functional; conditions: PC-3, 48 h, read-out: GI
T47D = assay: Antiproliferative activity against human T47D cells assessed as growth inhibition at 10 uM after 48 hrs by sulforhodamine B assay relative to control; format: functional; conditions: read-out: GI
MCF7 = assay: Antiproliferative activity against human MCF7 cells assessed as growth inhibition at 10 uM after 48 hrs by sulforhodamine B assay relative to control; format: functional; conditions: MCF7, 48 h, read-out: GI
ACHN = assay: Antiproliferative activity against human ACHN cells assessed as growth inhibition at 10 uM after 48 hrs by sulforhodamine B assay relative to control; format: functional; conditions: read-out: GI
NCI/ADR-RES = assay: Antiproliferative activity against human NCI/ADR-RES cells assessed as growth inhibition at 10 uM after 48 hrs by sulforhodamine B assay relative to control; format: functional; conditions: read-out: GI
CAKI-1 = assay: Antiproliferative activity against human Caki1 cells assessed as growth inhibition at 10 uM after 48 hrs by sulforhodamine B assay relative to control; format: functional; conditions: CAKI-1, 48 h, read-out: GI
UO-31 = assay: Antiproliferative activity against human UO31 cells assessed as growth inhibition at 10 uM after 48 hrs by sulforhodamine B assay relative to control; format: functional; conditions: UO-31, 48 h, read-out: GI
HL-60(TB) = assay: Antiproliferative activity against human HL-60(TB) cells assessed as growth inhibition at 10 uM after 48 hrs by sulforhodamine B assay relative to control; format: functional; conditions: HL-60, 48 h, read-out: GI
UACC-62 = assay: Antiproliferative activity against human UACC62 cells assessed as growth inhibition at 10 uM after 48 hrs by sulforhodamine B assay relative to control; format: functional; conditions: UACC-62, 48 h, read-out: GI
HCT-15 = assay: Antiproliferative activity against human HCT15 cells assessed as growth inhibition at 10 uM after 48 hrs by sulforhodamine B assay relative to control; format: functional; conditions: HCT-15, 48 h, read-out: GI
OVCAR-4 = assay: Antiproliferative activity against human OVCAR4 cells assessed as growth inhibition at 10 uM after 48 hrs by sulforhodamine B assay relative to control; format: functional; conditions: OVCAR-4, 48 h, read-out: GI
NCI-H522 = assay: Antiproliferative activity against human NCI-H522 cells assessed as growth inhibition at 10 uM after 48 hrs by sulforhodamine B assay relative to control; format: functional; conditions: NCI-H522, 48 h, read-out: GI
A549 [1] = assay: Antiproliferative activity against human A549/ATCC cells assessed as growth inhibition at 10 uM after 48 hrs by sulforhodamine B assay relative to control; format: functional; conditions: A549, 48 h, read-out: GI
MDA-MB-468 = assay: Antiproliferative activity against human MDA-MB-468 cells assessed as growth inhibition at 10 uM after 48 hrs by sulforhodamine B assay relative to control; format: functional; conditions: MDA-MB-468, 48 h, read-out: GI
SF-295 = assay: Antiproliferative activity against human SF295 cells assessed as growth inhibition at 10 uM after 48 hrs by sulforhodamine B assay relative to control; format: functional; conditions: SF-295, 48 h, read-out: GI
SR = assay: Antiproliferative activity against human SR cells assessed as growth inhibition at 10 uM after 48 hrs by sulforhodamine B assay relative to control; format: functional; conditions: read-out: GI
HCT-116 = assay: Antiproliferative activity against human HCT116 cells assessed as growth inhibition at 10 uM after 48 hrs by sulforhodamine B assay relative to control; format: functional; conditions: HCT-116, 48 h, read-out: GI
A549 [2] = assay: Induction of apoptosis in human A549 cells assessed as early apoptotic cells at 2 uM after 24 hrs by Annexin V-FITC/propidium iodide staining-based flow cytometric analysis (reference value: 0.52%); format: functional
BJ = assay: Cytotoxicity against human BJ cells; format: cell-based
HeLa = assay: Cytotoxicity against human HeLa cells; format: functional, cell-based
[3] = Cytotoxicity against human WPE1-NA22 cells; format: cell-based
A549 [4] = assay: Potency index, ratio of compound activity to 5-FU activity for caspase9 expression in human A549 cells; format: functional
[5] = target: T1, Serine/threonine-protein kinase mTOR (Homo sapiens, UniProt P42345); assay: Inhibition of mTOR (unknown origin) incubated for 1 hr by ELISA
A549 [6] = assay: Induction of apoptosis in human A549 cells 24 hrs by propidium iodide staining-based flow cytometric analysis (reference value: 0.92%); format: functional
A549 [7] = assay: Cell cycle arrest in human A549 cells assessed as accumulation of cells at pre-G1 phase at 2 uM after […] by propidium iodide staining-based flow cytometric analysis (reference value: 0.92%); format: functional
A549 [8] = assay: Cell cycle arrest in human A549 cells assessed as accumulation of cells at S phase at 2 uM after 24 hrs by propidium iodide staining-based flow cytometric analysis (reference value: 25.26%); format: functional
A549 [9] = assay: Induction of apoptosis in human A549 cells assessed as caspase9 expression at 3.04 uM after 2 hrs by ELISA (reference value: 0.1726 ng/ml); format: functional
[10] = target: T1, Serine/threonine-protein kinase mTOR; assay: Inhibition of mTOR (unknown origin) incubated for 1 hr by ELISA relative to control; conditions: concentration not given here
A549 [11] = assay: Cell cycle arrest in human A549 cells assessed as accumulation of cells at G0/G1 phase at 2 uM after 24 hrs by propidium iodide staining-based flow cytometric analysis (reference value: 67.62%); format: functional
A549 [12] = assay: Potency index, ratio of compound activity to 5-FU activity for caspase3 expression in human A549 cells; format: functional
MRC5 = assay: Cytotoxicity against human MRC5 cells; format: cell-based
A549 [13] = assay: Induction of apoptosis in human A549 cells assessed as late apoptotic cells at 2 uM after 24 hrs by Annexin V-FITC/propidium iodide staining-based flow cytometric analysis (reference value: 0.33%); format: functional
A549 [14] = assay: Induction of apoptosis in human A549 cells assessed as caspase3 expression at 3.04 uM after 2 hrs by ELISA (reference value: 53.45 ng/ml); format: functional
A549 [15] = assay: Cell cycle arrest in human A549 cells assessed as accumulation of cells at G2/M phase at 2 uM after 24 hrs by propidium iodide staining-based flow cytometric analysis (reference value: 6.2%); format: functional
A549 [16] = assay: Induction of apoptosis in human A549 cells assessed as necrotic cells at 2 uM after 24 hrs by Annexin V-FITC/propidium iodide staining-based flow cytometric analysis (reference value: 0.07%); format: functional
A549 [17] = assay: Induction of apoptosis in human A549 cells assessed as viable cells at 2 uM after 24 hrs by Annexin V-FITC/propidium iodide staining-based flow cytometric analysis (reference value: 97.5%); format: functional; conditions: A549, 24 h, read-out: Activity

CCOC(=O)C1=C(CSC(=S)N2CCN(c3ccc(OC)cc3)CC2)N(C)C(=O)NC1c1ccccc1 (stereo not drawn)
inhibition of growth at 10 µM (MOLT-4): 49%
inhibition of growth at 10 µM (LOX IMVI): 33%
inhibition of growth at 10 µM (SK-MEL-5): 51%
inhibition of growth at 10 µM (NCI-H322M): 17%
inhibition of growth at 10 µM (K562): 47%
inhibition of growth at 10 µM (NCI-H460): 39%
inhibition of growth at 10 µM (PC-3): 53%
inhibition of growth at 10 µM (T47D): 59%
inhibition of growth at 10 µM (MCF7): 30%
inhibition of growth at 10 µM (ACHN): 21%
inhibition of growth at 10 µM (NCI/ADR-RES): 13%
inhibition of growth at 10 µM (CAKI-1): 26%
inhibition of growth at 10 µM (UO-31): 55%
inhibition of growth at 10 µM (HL-60(TB)): 32%
inhibition of growth at 10 µM (UACC-62): 42%
inhibition of growth at 10 µM (HCT-15): 60%
inhibition of growth at 10 µM (OVCAR-4): 29%
inhibition of growth at 10 µM (NCI-H522): 37%
inhibition of growth at 10 µM (A549 [1]): 33%
inhibition of growth at 10 µM (MDA-MB-468): 21%
inhibition of growth at 10 µM (SF-295): 15%
inhibition of growth at 10 µM (SR): 63%
inhibition of growth at 10 µM (HCT-116): 57%

CCOC(=O)C1=C(CN(C2CCCCC2)C2CCCCC2)N(C)C(=O)NC1c1ccccc1 (stereo not drawn)
inhibition of growth at 10 µM (MOLT-4): 35%
inhibition of growth at 10 µM (LOX IMVI): 13%
inhibition of growth at 10 µM (SK-MEL-5): 19%
inhibition of growth at 10 µM (NCI-H322M): 5%
inhibition of growth at 10 µM (K562): 31%
inhibition of growth at 10 µM (NCI-H460): 13%
inhibition of growth at 10 µM (PC-3): 58%
inhibition of growth at 10 µM (T47D): 46%
inhibition of growth at 10 µM (MCF7): 36%
inhibition of growth at 10 µM (ACHN): 13%
inhibition of growth at 10 µM (NCI/ADR-RES): 7%
inhibition of growth at 10 µM (CAKI-1): 30%
inhibition of growth at 10 µM (UO-31): 27%
inhibition of growth at 10 µM (HL-60(TB)): 37%
inhibition of growth at 10 µM (UACC-62): 23%
inhibition of growth at 10 µM (HCT-15): 11%
inhibition of growth at 10 µM (OVCAR-4): 26%
inhibition of growth at 10 µM (NCI-H522): 18%
inhibition of growth at 10 µM (A549 [1]): 33%
inhibition of growth at 10 µM (MDA-MB-468): 21%
inhibition of growth at 10 µM (SF-295): 19%
inhibition of growth at 10 µM (SR): 20%
inhibition of growth at 10 µM (HCT-116): 33%

CCOC(=O)C1=C(CSC(=S)N(C2CCCCC2)C2CCCCC2)N(C)C(=O)NC1c1ccccc1 (stereo not drawn)
Activity (A549 [2]): 3.27%
IC50 (BJ): 18.2 µM
inhibition of growth at 10 µM (MOLT-4): 72%
inhibition of growth at 10 µM (LOX IMVI): 67%
IC50 (HeLa): 1.85 µM
inhibition of growth at 10 µM (SK-MEL-5): 86%
IC50 [3]: 32.1 µM
inhibition of growth at 10 µM (NCI-H322M): 9%
inhibition of growth at 10 µM (K562): 65%
inhibition of growth at 10 µM (NCI-H460): 88%
Ratio (A549 [4]): 100
IC50 [5]: 0.64 µM
inhibition of growth at 10 µM (PC-3): 79%
Activity (A549 [6]): 7.39%
inhibition of growth at 10 µM (T47D): 50%
Activity (A549 [7]): 7.39%
Activity (A549 [8]): 21.95%
inhibition of growth at 10 µM (MCF7): 54%
Activity (A549 [9]): 18.14 ng/mL
inhibition [10]: 86.6%
inhibition of growth at 10 µM (ACHN): 63%
inhibition of growth at 10 µM (NCI/ADR-RES): 37%
Activity (A549 [11]): 58.25%
Ratio (A549 [12]): 10
IC50 (MRC5): 32 µM
inhibition of growth at 10 µM (CAKI-1): 75%
inhibition of growth at 10 µM (UO-31): 56%
inhibition of growth at 10 µM (HL-60(TB)): 85%
inhibition of growth at 10 µM (UACC-62): 54%
Activity (A549 [13]): 3.31%
inhibition of growth at 10 µM (HCT-15): 61%
Activity (A549 [14]): 560.4 ng/mL
Activity (A549 [15]): 12.41%
Activity (A549 [16]): 0.81%
inhibition of growth at 10 µM (OVCAR-4): 56%
inhibition of growth at 10 µM (NCI-H522): 42%
inhibition of growth at 10 µM (A549 [1]): 53%
inhibition of growth at 10 µM (MDA-MB-468): 53%
viability at 2 µM (A549 [17]): 90.7%
inhibition of growth at 10 µM (SF-295): 61%
inhibition of growth at 10 µM (SR): 71%
inhibition of growth at 10 µM (HCT-116): 74%

Reference: ChEMBL document CHEMBL4270553, “Synthesis and anticancer activity of new dihydropyrimidinone derivatives” (Eur J Med Chem, 2018)
